Reference: patent US20040033614A1, “Detection of oxidative intermediates in biological samples” (priority 2002, published 2004)

Key:
[1] = test system: superoxide dismutase and glutathione peroxidase; conditions: 5/6th nephrectomized rats treated with enalapril; reference 26; cited from earlier work
[2] = Blood pressure and proteinuria in the add-on losartan trial; assay type: in vivo, patients with chronic kidney disease; conditions: losartan 50 mg/d added to lisinopril 40 mg/d; as reported previously (15)
Experimental: The protocol design of this study was reported in detail previously (15). Briefly, patients between the ages of 18 to 80 years with proteinuria of ≧1 g/d, hypertension defined as mean arterial pressure ≧97 mm Hg, serum potassium of ≦5.5 mEq/L and on lisinopril therapy of 40 mg/d for >3 months were eligible for the study. […] The study was a two period, cross-over, randomized controlled trial. Patients received either a sequence of losartan 50 mg/d for 4 weeks, a two week washout, and then placebo for 4 weeks or placebo for 4 weeks, a two week washout, and then losartan 50 mg/d for 4 weeks. Lisinopril 40 mg/d along with other anti-hypertensive therapy were continued throughout the trial. […] Serum chemistries, complete blood counts, urine protein, electrolytes, urea and creatinine were measured in a hospital laboratory using routine methods. Specifically, creatinine was measured on a Hitachi 911 analyzer (Boehringer Mannheim) using the alkaline picrate method and urine protein was measured using a turbidometric method using benzethonium chloride read at 550 nm (Roche Diagnostics Corporation, Indianapolis, Ind.). Ambulatory blood pressure was measured with SpaceLabs 90207 monitors and glomerular filtration rate measurements with continuous infusion of iothalamate as previously reported (15).

plasma MDA = test: Plasma malondialdehyde by fluorometric HPLC, cross-over trial of add-on losartan; assay type: in vivo, patients with chronic kidney disease; conditions: losartan 50 mg/d for 4 weeks added to lisinopril 40 mg/d
Experimental: (§1) Sample derivatization was carried out in 2 mL capacity plastic centrifuge tubes fitted with screw-on caps. To a 50 μl aliquot of sample or TEP standard, 50 μl BHT solution, 400 μl H3PO4 solution, and 100 μl TBA solution were added. Sample tubes were capped tightly, vortexed and then heated for 1 hour in a 100° C. dry bath incubator. Following heat derivatization, samples were placed in an ice-water (0° C.) water bath for 5 minutes to cool. 250 μl n-butanol was subsequently added to each vial for extracting the MDA-TBA complex. Tubes were vortexed for 5 minutes and then centrifuged for 3 minutes at 14,000× min^−1 to separate the two phases. Aliquots of 100 μl were removed from the n-butanol layer of each sample and placed in HPLC vials for analysis.
(§2) The chromatographic system consisted of a Hewlett-Packard Chromatographic Series 1100 autosampler and isocratic pump and Hewlett-Packard model 1046A programmable fluorescence detector (Palo Alto, Calif., USA). The autosampler was programmed to inject 10 μl of each sample at 1-minute intervals. The pump flow rate was 1.0 ml/min with the mobile phase comprised of methanol-buffer (40:60, v/v). […] The fluorescence detector was set at an excitation wavelength of 515 nm and emission wavelength of 553 nm. […] Peak areas were determined using a ChromJet integrator (Thermo Separation Products, San Jose, Calif.). […]

plasma protein carbonyl = test: Total plasma protein carbonyl measurement by size exclusion HPLC; assay type: in vivo, patients with chronic kidney disease; conditions: direct measurement of protein carbonylation in plasma
Experimental: (§3) The protocol design of this study was reported in detail previously (15). Briefly, patients between the ages of 18 to 80 years with proteinuria of ≧1 g/d, hypertension defined as mean arterial pressure ≧97 mm Hg, serum potassium of ≦5.5 mEq/L and on lisinopril therapy of 40 mg/d for >3 months were eligible for the study. Patients who had previously received angiotensin receptor blockers or with estimated creatine clearance of <30 ml/min were excluded.
(§4) The study was a two period, cross-over, randomized controlled trial. Patients received either a sequence of losartan 50 mg/d for 4 weeks, a two week washout, and then placebo for 4 weeks or placebo for 4 weeks, a two week washout, and then losartan 50 mg/d for 4 weeks. Lisinopril 40 mg/d along with other anti-hypertensive therapy were continued throughout the trial. 24-hour urine was collected for protein, sodium, urea and creatinine, urinary carbonylated protein, malondialdehyde and monocyte chemotactic protein-l (MCP1) measurements. As the standard therapy for patients with proteinuria and renal failure includes ACE-inhibitors, ACE-inhibitors were not removed from any patient enrolled in the study.

[3] = test system: plasma albumin and total plasma protein oxidation; test: Carbonylation of plasma proteins by Western blotting (DNP derivatization, OxyBlot); assay type: in vivo, patients with chronic kidney disease; conditions: before vs after losartan 50 mg/d for 4 weeks
Experimental: as §3
The study was a two period, cross-over, randomized controlled trial. […]
Oxidation of plasma and urine proteins was measured by Western blot analysis according to the method of Shacter et al. Total protein was determined using the Vitros Dry Slide system (Ortho-Clinical Diagnostics, Rochester, N.Y.). […] Derivatized and underivatized plasma or urine samples were loaded on electrophoresis gels in volumes calculated to give 5 μg of protein per sample, and the samples were electrophoresed according to the method of Laemmli on 4 to 20% gradient SDS-PAGE (Bio-Rad, Hercules, Calif.). […] Blots were scanned on a Hewlett-Packard ScanJet 5200C scanner (Hewlett-Packard, Palo Alto, Calif.) and analyzed for band area using Un-Scan-It Gel software (Silk Scientific, Orem, Utah).
Samples from individual patients before and after losartan therapy, including derivatized and underivatized controls, were analyzed on a single Western blot. […]

[4] = test system: urinary albumin and total urinary protein oxidation; test: Carbonylation of urine proteins by Western blotting (DNP derivatization, OxyBlot); assay type: in vivo, patients with chronic kidney disease
Experimental: as §3, §4
Oxidation of plasma and urine proteins was measured by Western blot analysis according to the method of Shacter et al. Total protein was determined using the Vitros Dry Slide system (Ortho-Clinical Diagnostics, Rochester, N.Y.). Plasma was diluted 1:25 (v:v) with phosphate-buffered saline (PBS), and one aliquot of the diluted sample was derivatized and another prepared as an underivatized control using the OxyBlot protein oxidation detection kit (Intergen, Purchase, N.Y.). […] Derivatized and underivatized plasma or urine samples were loaded on electrophoresis gels in volumes calculated to give 5 μg of protein per sample, and the samples were electrophoresed according to the method of Laemmli on 4 to 20% gradient SDS-PAGE (Bio-Rad, Hercules, Calif.). […] Bands were visualized with chemiluminescent chemicals and captured on film at two exposure times (30 seconds and 1 minute). Blots were scanned on a Hewlett-Packard ScanJet 5200C scanner (Hewlett-Packard, Palo Alto, Calif.) and analyzed for band area using Un-Scan-It Gel software (Silk Scientific, Orem, Utah).
Samples from individual patients before and after losartan therapy, including derivatized and underivatized controls, were analyzed on a single Western blot. This ensured that the response to losartan therapy was compared under the same analytical conditions. […] Density of individual albumin bands and total protein in each sample lane was determined using the same size section of each scanned blot. […] The uniform window size and analysis box ensured that data were being analyzed consistently from band to band and from blot to blot. […]

urinary MDA = test: Urinary malondialdehyde by fluorometric HPLC, cross-over trial of add-on losartan; assay type: in vivo, patients with chronic kidney disease; conditions: losartan 50 mg/d for 4 weeks added to lisinopril 40 mg/d; significantly decreased from 4.75±3.23 before therapy; mean ± SD, 16 patients
Experimental: as §1, §2

| SMILES | antioxidant enzymes in the kidney (superoxide dismutase, glutathione peroxidase) [1] | blood pressure, change in response to add-on losartan therapy [2] | proteinuria, change in response to add-on losartan therapy [2] | plasma MDA, change in response to losartan therapy (plasma MDA) | carbonyl concentration from oxidized proteins in plasma, change with losartan (plasma protein carbonyl) | plasma albumin oxidation, change with losartan [3] | plasma protein oxidation, change with losartan [3] | total urinary protein oxidation in excess of plasma after losartan therapy ([4]; after treatment, p=0.029, 99% higher before therapy) | urinary albumin oxidation compared to plasma albumin after losartan ([4]; after treatment, p=0.45, 71% higher before therapy) | total urinary protein oxidation, change with losartan ([4]; before vs after losartan 50 mg/d for 4 weeks) | oxidative damage to urinary albumin ([4]; losartan 50 mg/d for 4 weeks added to lisinopril 40 mg/d, before vs after, proteinuria not reduced) | urinary MDA levels after losartan therapy (urinary MDA) |
| --- | --- | --- | --- | --- | --- | --- | --- | --- | --- | --- | --- | --- |
| CCOC(=O)[C@H](CCc1ccccc1)N[C@@H](C)C(=O)N1CCC[C@H]1C(=O)O [enalapril] | increased | – | – | – | – | – | – | – | – | – | – | – |
| CCCCc1nc(Cl)c(CO)n1Cc1ccc(-c2ccccc2-c2nn[nH]n2)cc1 [losartan] | – | no change | no change | Neither plasma MDA or plasma oxidized proteins (FIGS. 6B and 7) changed | remained unchanged | remained unchanged | remained unchanged | 69% | no more oxidized | did not reach statistical significance | reduced | 3.39±2.17 μmol/g creatinine |
